Measured values: ChEMBL document CHEMBL5236572, “Bioactive Aurones, Indanones, and Other Hemiindigoid Scaffolds: Medicinal Chemistry and Photopharmacology Perspectives” (J Med Chem, 2022)
pEC50, pIC50, pKi: −log10 of the molar value. ≈ marks a conversion by molar mass, not a printed value.

How the values were obtained:
Schistosoma mansoni [1] = assay: Antischistosomal activity against adult stage of Schistosoma mansoni assessed assessed as inhibition of parasite death; assay type: functional, organism-based
[2] = Cytotoxicity against mouse Peritoneal macrophage; assay type: toxicity, cell-based; details: peritoneal macrophages
Pseudomonas aeruginosa = assay: Antimicrobial activity against Pseudomonas aeruginosa assessed as bacterial growth inhibition; assay type: functional
Staphylococcus aureus = assay: Antimicrobial activity against Staphylococcus aureus assessed as bacterial growth inhibition; assay type: functional
Aspergillus niger = assay: Antifungal activity against Aspergillus niger assessed as reduction in fungal growth; assay type: functional
Aspergillus flavus = assay: Antifungal activity against Aspergillus flavus assessed as reduction in fungal growth; assay type: functional
[3] = molecular target: Serine/threonine-protein kinase AKT (Homo sapiens, UniProt P31751+Q9Y243+P31749); assay: Inhibition of AKT (unknown origin) by FRET based Z'-LYTE assay; assay type: protein assay
Plasmodium falciparum = assay: Antimalarial activity against chloroquine-resistant erythrocyte stage Plasmodium falciparum assessed as growth inhibition incubated for 72 hrs by SYBR Green I dye based fluorescence analysis; assay type: functional, organism-based
Plasmodium berghei = assay: Antimalarial activity against liver stage transgenic Plasmodium berghei (PbGFP-Luccon) infected in human Huh-7 cells assessed as reduction in parasite load incubated for 48 hrs by firefly luciferase assay; assay type: functional, organism-based; details: Huh-7, 48 h
HEK-293T = assay: Cytotoxicity against human HEK293T cells assessed as reduction in cell viability incubated for 48 hrs by Alamar Blue assay; assay type: functional, cell-based
[4] = test system: Trypanosoma brucei brucei; assay: Antitrypanosomal activity against Trypanosoma brucei brucei assessed as reduction in parasite viability by resorufin based fluorescence assay; assay type: functional, organism-based
[5] = Cytotoxicity against human HeLa cells assessed as reduction in cell viability; assay type: toxicity, cell-based
[6] = molecular target: T1, Amine oxidase [flavin-containing] A (Homo sapiens, UniProt P21397); assay: Inhibition of recombinant human MAO-A using p-tyramine as substrate by Amplex-Red MAO assay
T1 sequence (P21397 whole entry): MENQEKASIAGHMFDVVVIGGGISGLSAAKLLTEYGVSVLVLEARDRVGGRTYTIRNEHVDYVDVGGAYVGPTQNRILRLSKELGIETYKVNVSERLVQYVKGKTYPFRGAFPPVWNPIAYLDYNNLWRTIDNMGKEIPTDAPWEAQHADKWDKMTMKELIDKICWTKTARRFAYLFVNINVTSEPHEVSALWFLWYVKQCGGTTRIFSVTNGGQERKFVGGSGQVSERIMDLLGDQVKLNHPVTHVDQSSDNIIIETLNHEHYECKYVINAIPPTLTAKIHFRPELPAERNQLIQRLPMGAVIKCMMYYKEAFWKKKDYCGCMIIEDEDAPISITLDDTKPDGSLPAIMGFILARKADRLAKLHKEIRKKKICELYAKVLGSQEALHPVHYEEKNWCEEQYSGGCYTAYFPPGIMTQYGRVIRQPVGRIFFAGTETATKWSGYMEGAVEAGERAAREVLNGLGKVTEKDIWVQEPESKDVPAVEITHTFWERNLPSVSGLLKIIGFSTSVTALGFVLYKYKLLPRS

[7] = molecular target: T2, Amine oxidase [flavin-containing] B (Homo sapiens, UniProt P27338); assay: Inhibition of recombinant human MAO-B using p-tyramine as substrate by Amplex-Red MAO assay
T2 sequence (P27338 whole entry): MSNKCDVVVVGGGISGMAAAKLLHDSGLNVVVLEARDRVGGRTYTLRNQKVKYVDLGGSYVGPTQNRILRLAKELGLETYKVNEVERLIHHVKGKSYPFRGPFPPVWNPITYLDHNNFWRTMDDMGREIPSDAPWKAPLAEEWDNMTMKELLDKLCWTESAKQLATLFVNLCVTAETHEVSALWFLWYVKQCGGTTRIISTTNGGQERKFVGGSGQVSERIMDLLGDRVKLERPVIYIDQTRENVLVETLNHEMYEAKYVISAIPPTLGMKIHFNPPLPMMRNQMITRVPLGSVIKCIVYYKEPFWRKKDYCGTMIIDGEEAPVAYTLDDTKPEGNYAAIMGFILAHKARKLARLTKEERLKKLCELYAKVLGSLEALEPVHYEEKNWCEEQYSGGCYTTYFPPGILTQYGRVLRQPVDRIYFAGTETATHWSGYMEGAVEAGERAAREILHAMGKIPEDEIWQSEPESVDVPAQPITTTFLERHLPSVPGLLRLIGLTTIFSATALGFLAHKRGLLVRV

Schistosoma mansoni [8] = assay: Antischistosomal activity against adult stage of Schistosoma mansoni BH assessed assessed as inhibition of parasite death at 25 uM incubated for 24 hrs by light microscopy; assay type: functional
[9] = Cytotoxicity against mouse Peritoneal macrophage incubated for 24 hrs by MTT assay; assay type: toxicity, cell-based; details: peritoneal macrophages
U-251 = assay: Antiproliferative activity against doxorubicin resistant human U-251 cells assessed as inhibition of cell viability incubated for 48 hrs by sulforhodamine B assay; assay type: functional, cell-based; details: U-251, 48 h
Casein kinase 2 = Casein kinase 2 (Homo sapiens, UniProt P67870+P68400+P19784+Q8NEV1); assay: Inhibition of recombinant human CK2 using RRRDDDSDDD as substrate in presence of [gamma-33P-ATP] incubated for 20 mins by beta-counter analysis; assay type: protein assay
PC-3 = assay: Antiproliferative activity against doxorubicin resistant human PC-3 cells assessed as inhibition of cell proliferation by Beckman Coulter analysis; assay type: functional, cell-based
[10] = Inhibition of equine serum BuChE using butyrylthiocholine iodide as substrate preincubated for 15 mins followed by substrate addition and measured after 2 mins by DTNB reagent based Ellman's method
[11] = test system: Mycobacterium tuberculosis; assay: Antimicrobial activity against Mycobacterium tuberculosis assessed as reduction in bacterial growth by Alamar Blue fluorescence assay; assay type: functional, organism-based
SH-SY5Y = assay: Cytotoxicity against human SH-SY5Y cells assessed as reduction in cell viability; assay type: functional, cell-based
NB-4 = assay: Cytotoxicity against human NB-4 cells assessed as reduction in cell viability; assay type: functional, cell-based

Work on `Cn1cc(/C=C2\Oc3ccccc3C2=O)c2ccccc21` yielded a pEC50 (Schistosoma mansoni [1]) of 4.47 and a CC50 [2] of over 150 µM.
`Cc1ccc2c(c1)C(=O)/C(=C/c1coc3ccc(C)cc3c1=O)O2` showed an MIC (Pseudomonas aeruginosa) of 1.6 µM (≈ 0.509 µg/mL), an MIC (Staphylococcus aureus) of 1.6 µM (≈ 0.509 µg/mL) and an MIC (Aspergillus niger) of 14 µM (≈ 4.46 µg/mL). For the same compound, the MIC (Aspergillus flavus) was 14 µM (≈ 4.46 µg/mL).
Work on `Cc1ccc2c(c1C)C(=O)/C(=C/c1ccccc1)C2` yielded an IC50 [3] of 0.066 µM.
In the case of `O=C1/C(=C/c2cccc(-c3ccc(C(F)(F)F)cc3)c2)Nc2ccccc21`, the pEC50 (Plasmodium falciparum) was 6.96, the pEC50 (Plasmodium berghei) was under 4.00 and the pEC50 (HEK-293T) was 6.09.
With `O=C1/C(=C/c2cccnc2Cl)Cc2ccccc21` the pIC50 [4] was 6.26 and the CC50 [5] was over 100 µM.
Work on `O=C1/C(=C/c2c3ccccc3cc3ccccc23)Oc2ccccc21` yielded a pKi [6] of 6.96 and a pKi [7] of 6.70.
`O=C1/C(=C/c2cccs2)Oc2ccccc21` gave an inhibition at 25 µM (Schistosoma mansoni [8]) of 50% and a CC50 at 24 h [9] of over 150 µM.
Work on `O=C1/C(=C(\O)c2ccc3ccccc3c2)Cc2ccccc21` yielded a pIC50 (U-251) of 5.60.
`O=C1/C(=C/c2ccc(O)c(Br)c2)Oc2c(Br)cccc21` gave an IC50 (Casein kinase 2) of 0.0033 µM.
Work on `COc1ccc(/C=C2\Oc3c(ccc(OC(C)=O)c3COC(C)=O)C2=O)cc1OC` yielded a pIC50 (PC-3) of 6.13.
With `COc1cc2c(cc1OC)C(=O)/C(=C/c1cc[n+](Cc3ccccc3F)cc1)O2` the pIC50 [10] was 5.79.
Compound `CCOc1ccc2c(c1)O/C(=C\c1cccc(OCC(=O)OC)c1)C2=O` has a pIC50 [11] of 5.32.
In the case of `COc1ccc(/C=C2\Oc3c(ccc4c3C(=O)CC(C)(C)O4)C2=O)cc1`, the pIC50 (SH-SY5Y) was 5.47 and the pIC50 (NB-4) was 5.32.
